The record followed here is PMC9003339 (2022).

In test [1] the test system is ATP aptamer (screened, 32 nt, 5'FAM modified) (DNA, aptamer) TGGCGTCTGCATGCAGGTCGACGCATGCGCCG
The test is described as follows: graphene oxide fluorescence assay, aptamer titrated at fixed ATP. To be noted: 5 mM KCl, 100 mM NaCl, 1 mM MgCl2, 50 mM Tris-HCl pH 7.4, 25 °C, aptamer 50–500 nM, 1 μL of 100 mM in 200 μL.

Test [2] relates to Functional chimera sequence (DNA, aptamer) TGGCGTCTGCATGCAGGTCGACGCATGCGCCGCCTGAGCTTAGAT
The test can be described thus: release from graphene oxide, PAGE. The note with it: 5 mM KCl, 100 mM NaCl, 1 mM MgCl2; 50 mM Tris-HCl pH 7.4, 25 °C; chimera 2 μM, ATP 1 mM.

Test [3] deals with FAM-labeled functional chimera sequence (DNA, aptamer) TGGCGTCTGCATGCAGGTCGACGCATGCGCCGCCTGAGCTTAGAT
The test can be described thus: fluorescence recovery from graphene oxide. The note with it: 5 mM KCl, 100 mM NaCl, 1 mM MgCl2; 50 mM Tris-HCl pH 7.4, 25 °C; chimera 2 μM, ATP 1 mM.

In test [4] the test system is Classic ATP aptamer (DNA, aptamer) ACCTGGGGGAGTATTGCGGAGGAAGGT
The test can be described thus: graphene oxide fluorescence recovery. The note with it: 5 mM KCl, 100 mM NaCl, 1 mM MgCl2, 50 mM Tris-HCl pH 7.4, 25 °C, aptamer 300 nM.

The test system of test [5] is ATP aptamer (screened, 32 nt, 5'FAM modified) (DNA, aptamer) TGGCGTCTGCATGCAGGTCGACGCATGCGCCG
The test is described as follows: graphene oxide fluorescence recovery. The note with it: 5 mM KCl, 100 mM NaCl, 1 mM MgCl2, 50 mM Tris-HCl pH 7.4, 25 °C, aptamer 300 nM.

The term Kd denotes the equilibrium constant for the complex coming apart. `Nc1ncnc2c1ncn2[C@@H]1O[C@H](COP(=O)(O)OP(=O)(O)OP(=O)(O)O)[C@@H](O)[C@H]1O` registered an equilibrium dissociation constant (Kd) in test [1] of 70.61 ± 20.91 nM. Also, the binding result in test [2], in test [3] and in test [4] (1 μL of 100 mM ATP) was “yes” throughout.

As to `Nc1ncnc2c1ncn2[C@@H]1O[C@H](COP(=O)(O)O)[C@@H](O)[C@H]1O`, the binding result was “yes” in test [4] (1 μL of 100 mM AMP) and “weak” in test [5] (1 μL of 100 mM AMP, ATP 4.7-fold higher).

Take `Nc1ncnc2c1ncn2[C@@H]1O[C@H](COP(=O)(O)OP(=O)(O)O)[C@@H](O)[C@H]1O`: the binding entry in test [4] (1 μL of 100 mM ADP) is on record as “yes”; in test [5] (1 μL of 100 mM ADP, ATP 2.4-fold higher) it was “weak”.
